pEC50: −log10 of the molar value. Where a SMILES comes first, the peptide text is derived from it.
What was measured:
human GLP-2 receptor = molecular target: T1, human GLP-2 receptor (Homo sapiens, UniProt O95838, D470N); experiment: GLP-2 receptor potency assay (cAMP ALPHASCREEN, HEK293 cells stably expressing GLP-2 R); type: cell-based; conditions: cAMP response, HEK293 cells expressing human GLP-2 R; read-out: EC50 GLP-2
T1 construct: expressed in transfected cells
T1 sequence (O95838 1-553 D470N): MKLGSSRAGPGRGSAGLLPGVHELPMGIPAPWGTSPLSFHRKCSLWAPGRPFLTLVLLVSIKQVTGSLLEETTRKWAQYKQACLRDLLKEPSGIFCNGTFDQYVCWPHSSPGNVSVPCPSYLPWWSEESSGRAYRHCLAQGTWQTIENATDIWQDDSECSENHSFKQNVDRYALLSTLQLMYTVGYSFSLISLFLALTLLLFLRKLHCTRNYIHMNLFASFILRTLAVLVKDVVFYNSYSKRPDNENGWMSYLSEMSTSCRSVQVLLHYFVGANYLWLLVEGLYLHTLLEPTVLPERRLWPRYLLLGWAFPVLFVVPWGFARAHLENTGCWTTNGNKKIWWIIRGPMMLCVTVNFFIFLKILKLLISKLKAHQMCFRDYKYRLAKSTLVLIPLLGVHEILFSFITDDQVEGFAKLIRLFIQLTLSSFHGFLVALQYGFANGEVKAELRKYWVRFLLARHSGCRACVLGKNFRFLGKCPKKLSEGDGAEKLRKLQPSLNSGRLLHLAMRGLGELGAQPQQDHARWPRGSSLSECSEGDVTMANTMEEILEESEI
How it was run: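 HEK293 clones stably transfected with the human GLP-2 receptor, selected with G418, were used. Intracellular cAMP was quantified by AlphaScreen. Responses were normalised to positive and vehicle controls, and EC50 and maximal response were taken from concentration-response curves.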

[1] = system: Normal chow-fed C57BL/6J male mice; experiment: Effect on fasting glucose and intestinal weight in normal mice; type: in vivo; conditions: for Small intestinal wet weight: 100 nmol/kg s.c. once daily for 4 days, sacrificed 24 hours after final dosing; for Fasting blood glucose: 100 nmol/kg s.c., day 0 after a single injection, fasted mice
Protocol: Normal chow-fed C57BL/6J male mice were used. The mice were kept in standard housing conditions, light-, temperature-, and humidity-controlled room (12:12 h light-dark cycle, with lights on at 06.00-18.00 h; 20-22° C.; 50-80% relative humidity). Each dosing group consisted of 6 animals. Mice were dosed once daily with 100 nmol/kg with the test compounds or vehicle for 4 days via subcutaneous administration.
On day 0 mice were fasted and blood glucose levels measured after a single s.c. injection with peptides. Animals were sacrificed 24 hours after final dosing on day 3, and small intestinal wet weights were measured.

human GLP-1 receptor = molecular target: T2, human GLP-1 receptor (Homo sapiens, UniProt P43220); experiment: GLP-1 receptor potency assay (cAMP ALPHASCREEN, HEK293 cells stably expressing GLP-1 R); type: cell-based; conditions: cAMP response, HEK293 cells expressing human GLP-1 R
T2 construct: expressed in transfected cells
T2 sequence (P43220 24-463): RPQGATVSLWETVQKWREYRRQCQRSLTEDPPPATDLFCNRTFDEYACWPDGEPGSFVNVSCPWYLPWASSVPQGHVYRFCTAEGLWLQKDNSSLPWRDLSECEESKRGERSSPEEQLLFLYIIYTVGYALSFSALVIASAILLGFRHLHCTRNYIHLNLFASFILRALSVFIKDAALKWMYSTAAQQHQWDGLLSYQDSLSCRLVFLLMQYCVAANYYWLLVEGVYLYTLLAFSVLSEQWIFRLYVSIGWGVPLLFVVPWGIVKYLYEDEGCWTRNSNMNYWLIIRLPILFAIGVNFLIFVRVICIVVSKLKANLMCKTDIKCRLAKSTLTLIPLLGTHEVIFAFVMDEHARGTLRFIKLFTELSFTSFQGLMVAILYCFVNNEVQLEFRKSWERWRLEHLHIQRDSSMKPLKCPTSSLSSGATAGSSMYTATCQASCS
How it was run: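 Clonal HEK293 line stably transfected with human GLP-1R (G418-selected) was treated with test compounds and the cAMP response quantified by ALPHASCREEN. Signals were normalized to positive control and vehicle, with EC50 and maximal response taken from concentration-response curves.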

pEC50 (human GLP-2 receptor)	pEC50 (human GLP-1 receptor)	SMILES	Small intestinal wet weight [1]	Fasting blood glucose [1]
10.25	9.51	CC[C@H](C)[C@H](NC(=O)[C@H](Cc1ccccc1)NC(=O)[C@H](CC(=O)O)NC(=O)[C@H](CCCNC(=N)N)NC(=O)[C@H](C)NC(=O)[C@H](C)NC(=O)[C@H](CCC(N)=O)NC(=O)[C@H](CCCCNC(=O)COCCOCCNC(=O)[C@H](CCCCN)NC(=O)[C@H](CCC(=O)O)NC(=O)[C@H](CCCCN)NC(=O)CC[C@H](NC(=O)CCCCCCCCCCCCCCCCCCC(=O)O)C(=O)O)NC(=O)[C@H](CC(=O)O)NC(=O)[C@H](CC(C)C)NC(=O)[C@@H](NC(=O)[C@@H](NC(=O)[C@H](C)NC(=O)[C@H](CC(C)C)NC(=O)[C@H](CCC(=O)O)NC(=O)[C@H](CO)NC(=O)[C@H](CO)NC(=O)[C@H](Cc1ccccc1)NC(=O)[C@@H](NC(=O)CNC(=O)[C@H](CCC(=O)O)NC(=O)C(C)(C)NC(=O)[C@@H](N)Cc1c[nH]cn1)[C@@H](C)O)[C@@H](C)O)[C@@H](C)CC)C(=O)N[C@@H](C)C(=O)N[C@@H](Cc1c[nH]c2ccccc12)C(=O)N[C@@H](CC(C)C)C(=O)N[C@H](C(=O)N[C@@H](CCC(=O)O)C(=O)N[C@@H](Cc1c[nH]cn1)C(=O)N[C@@H](CCCCN)C(=O)N[C@H](C(=O)N[C@H](C(=O)N[C@@H](CC(=O)O)C(=O)O)[C@@H](C)O)[C@@H](C)CC)[C@@H](C)CC [Compound 50] (HELM PEPTIDE1{H.[Aib].E.G.T.F.S.S.E.L.A.T.I.L.D.K.Q.A.A.R.D.F.I.A.W.L.I.E.H.K.I.T.D}|PEPTIDE2{[O=C(O)CCCCCCCCCCCCCCCCCCC(=O)[*:2]].[gGlu].K.E.K.[O=C(COCCOCCN[*:1])[*:2]]}$PEPTIDE1,PEPTIDE2,16:R3-6:R2$$$V2.0)	1.43 g	5.57 mM
10.25	–	CC[C@H](C)[C@H](NC(=O)[C@H](Cc1ccccc1)NC(=O)[C@H](CC(=O)O)NC(=O)[C@H](CCCNC(=N)N)NC(=O)[C@H](C)NC(=O)[C@H](C)NC(=O)[C@H](CCCCNC(=O)CC[C@H](NC(=O)CCCCCCCCCCCCCCCCC(=O)O)C(=O)O)NC(=O)CNC(=O)[C@H](CC(=O)O)NC(=O)[C@H](CC(C)C)NC(=O)[C@@H](NC(=O)[C@@H](NC(=O)[C@H](C)NC(=O)[C@H](CC(C)C)NC(=O)[C@H](CCC(=O)O)NC(=O)[C@H](CO)NC(=O)[C@@H](NC(=O)[C@H](Cc1ccccc1)NC(=O)[C@@H](NC(=O)CNC(=O)[C@H](CCC(=O)O)NC(=O)C(C)(C)NC(=O)[C@@H](N)Cc1c[nH]cn1)[C@@H](C)O)[C@@H](C)O)[C@@H](C)O)[C@@H](C)CC)C(=O)N[C@@H](C)C(=O)N[C@@H](Cc1c[nH]c2ccccc12)C(=O)N[C@@H](CC(C)C)C(=O)N[C@H](C(=O)N[C@@H](CCC(=O)O)C(=O)N[C@@H](Cc1c[nH]cn1)C(=O)N[C@@H](CCCCN)C(=O)N[C@H](C(=O)N[C@H](C(=O)N[C@@H](CC(=O)O)C(=O)O)[C@@H](C)O)[C@@H](C)CC)[C@@H](C)CC [Compound 9] (HELM PEPTIDE1{H.[Aib].E.G.T.F.T.S.E.L.A.T.I.L.D.G.K.A.A.R.D.F.I.A.W.L.I.E.H.K.I.T.D}|PEPTIDE2{[O=C(O)CCCCCCCCCCCCCCCCC(=O)[*:2]].[gGlu]}$PEPTIDE1,PEPTIDE2,17:R3-2:R2$$$V2.0)	1.11 g	4.98 mM

Reference: patent US11395847B2, “Acylated GLP-1/GLP-2 dual agonists” (Zealand Pharma A/S, priority 2016, dated 2022)
